Entries after “also recorded” stand apart in the source; their conditions may differ.
Columns and labels:
PDE XI = target: T1, PDE XI (Homo sapiens, UniProt Q9HCR9); conditions: cited from earlier work
T1 construct: host or cells: heterologously expressed

[1] = tested on: HEK-293 cells expressing C460W/E583M channels; assay: PGE1-induced cAMP responses in cell populations (Ca2+ influx through C460W/E583M channels); format: cell-based, human; conditions: for effect of PDE inhibitor added after PGE1: 100 μM IBMX or 10 μM RO-20-1724
From the text: In this Example, experiments conducted to detect cAMP levels in cells are described. Changes in cyclic AMP concentrations in response to PGE1 stimulation were monitored in HEK-293 cells by measuring Ca^2+ influx through C460W/E583M CNG channels (See, Rich et al. [2001], supra). HEK-293 cells express a variety of extracellular receptors including prostanoid receptors (Thomas and Hoffman, Mol. Pharmacol., 49:907-914 [1996]), and the cAMP-specific PDE type IV (Rich et al. [2001], supra; and Hoffmann et al., EMBO J., 18:893-903 [1999]). Based on PCR analysis, these cells also appear to express AC types II, […], VI, and VII, (Hellevuo et al., Biochem. Biophys. Res. Commun., 192:311-318 [1993]). C460W/E583M channels were expressed heterologously using an adenovirus construct (See, Rich et al. [2001], supra). The Ca^2+ permeability of the channel was used to detect changes in local cAMP concentration; the fluorescent indicator fura-2 was used to monitor Ca^2+ entry. With this approach, incremental changes in cAMP concentration are readily detected as changes in relative Ca^2+ influx rates through C460W/E583M channels (See, Rich et al., [2001], supra).
Transient responses were observed over a large range of PGE1 concentrations, from 0.01 to 10 μM (FIG. 17, Panel A). […] The decline was unlikely to result primarily from a reduction in AC activity (e.g., receptor desensitization), because of the sustained accumulation of total cellular cAMP in the presence of IBMX (See, FIG. 16, Panel B). To verify this, 100 μM IBMX was added at various times after PGE1 application.
To test whether PGE1 did indeed increase the total PDE activity, 100 nM PGE1 were added at various times after the initial application of 100 nM PGE1 (a subsaturating concentration). There was a negligible response to the subsequent addition of PGE1, even after 50 min (FIG. 17, Panel D). Taken together, the results of the experiments shown in FIG. 17, Panels C and D argue that the cAMP transient is due to an initial increase in AC activity, followed by a more profound increase in PDE activity. […] As indicated herein, these processes are crucial for the generation of spatially and temporally distinct cAMP signals.

PDE VI = conditions: cited from earlier work
PDE IV = conditions: cited from earlier work
PDE III = conditions: cited from earlier work
[2] = tested on: rat olfactory CNG channel α subunit; assay: Excised inside-out patch recordings, cyclic nucleotide dose-response of CNG channel constructs; format: biochemical; conditions: 100 μM IBMX; 1 μM PGE1
In short: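 Inside-out patches were excised and recorded at 20-21° C., with symmetrical 130 mM NaCl, 2 mM HEPES, 0.02 mM EDTA, 1 mM EGTA, pH 7.6. Currents were elicited by 250 ms pulses to +50 and −50 mV; cyclic nucleotide-induced current was taken as the difference with and without cNMP. cAMP and cGMP dose-responses were fitted to the Hill equation for K1/2 and N.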

T1 sequence (Q9HCR9 445-933 limits assumed): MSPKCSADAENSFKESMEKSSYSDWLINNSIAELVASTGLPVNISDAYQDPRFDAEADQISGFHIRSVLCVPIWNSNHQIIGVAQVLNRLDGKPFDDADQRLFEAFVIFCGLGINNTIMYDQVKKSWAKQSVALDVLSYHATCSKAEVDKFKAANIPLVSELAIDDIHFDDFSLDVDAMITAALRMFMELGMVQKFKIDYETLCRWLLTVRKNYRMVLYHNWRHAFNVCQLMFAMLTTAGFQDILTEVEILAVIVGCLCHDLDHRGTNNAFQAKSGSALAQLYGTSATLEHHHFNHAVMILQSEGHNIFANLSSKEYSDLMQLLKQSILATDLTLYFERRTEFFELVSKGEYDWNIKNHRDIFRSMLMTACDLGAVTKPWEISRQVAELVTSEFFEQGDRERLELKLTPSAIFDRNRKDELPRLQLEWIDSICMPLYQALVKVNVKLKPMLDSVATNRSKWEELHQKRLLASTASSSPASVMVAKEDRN

Row | SMILES | IC50 (PDE XI) [µM] | slopes of the IBMX-induced responses ([1]; 100 μM IBMX added 1-50 min after 100 nM PGE1) [s⁻¹] | effect of PDE inhibitor added after PGE1 [1] | IC50 (PDE VI) [µM] | IC50 (PDE IV) [µM] | IC50 (PDE III) [µM] | effect on CNG channel activity in excised membrane patches [2]
1 | COc1ccc(C2CNC(=O)C2)cc1OC1CCCC1 (centres unmarked) [Rolipram] | > 100 |  |  |  |  |  | 
2 | CC(C)Cn1c(=O)n(C)c(=O)c2[nH]cnc21 [IBMX, 3-isobutyl-1-methylxanthine] | 49.8 | 0.0044 ± 0.0008 | triggered a rapid Ca^2+ influx | 10 | 5 to 15 | 2 | did not alter CNG channel activity; also recorded: no effect on channel activity
3 | CCCCOc1cc(CC2CNC(=O)N2)ccc1OC (centres unmarked) [RO-20-1724, 4-(3-butoxy-4-methoxybenzyl)-2-imidazolidinone] |  |  | caused sharp increases in cAMP |  |  | 52 | no effect on channel activity
